Source: patent publication US8741897B2, “Glucocorticoid mimetics, methods of making them, pharmaceutical compositions and uses thereof” (Boehringer Ingelheim Pharmaceuticals Inc., priority 2003, dated 2014)

These molecules were tested on glucocorticoid receptor function (assay: one or more of the above assays (GR binding and glucocorticoid receptor cell assays: aromatase, IL-6, TAT, MMTV-Luc, IL-8, ICAM-Luc)). Details: assay not specified per compound.
Type: cell-based

SMILES | activity as agonists of the glucocorticoid receptor function in one or more of the above assays
COc1ccc(-c2ccsc2)cc1C(C)(C)CC(O)(Cc1cc2cc(OC(C)C)ncc2[nH]1)C(F)(F)F (stereo not drawn) [1,1,1-Trifluoro-2-(5-isopropoxy-1H-pyrrolo[2,3-c]pyridin-2-ylmethyl)-4-(2-methoxy-5-thiophen-3-ylphenyl)-4-methylpentan-2-ol] | potent agonists
Cc1ccc(F)cc1C(C)(C)CC(O)(Cc1cc2cc(N(C)C(C)C)ncc2[nH]1)C(F)(F)F (stereo not drawn) [1,1,1-Trifluoro-4-(5-fluoro-2-methylphenyl)-2-[5-(isopropylmethylamino)-1H-pyrrolo[2,3-c]pyridin-2-ylmethyl]-4-methylpentan-2-ol] | potent agonists
Cc1ccc(F)cc1C(C)(C)CC(O)(Cc1cc2ccncc2[nH]1)C(C)(C)C (stereo not drawn) [5-(5-Fluoro-2-methylphenyl)-2,2,5-trimethyl-3-(1H-pyrrolo[2,3-c]pyridin-2-ylmethyl)hexan-3-ol] | agonists
CC(C)(CC(O)(Cn1ccc2c1CCCC2=O)C(F)(F)F)c1cc(-c2cncnc2)cc2c1OCC2 (stereo not drawn) [1-[2-Hydroxy-4-methyl-4-(5-pyrimidin-5-yl-2,3-dihydrobenzofuran-7-yl)-2-trifluoromethylpentyl]-1,5,6,7-tetrahydroindol-4-one] | agonists
COc1ccc(-c2cccc3ccccc23)cc1C(C)(C)CC(O)(Cc1cc2cc(N3CCOCC3)ncc2[nH]1)C(F)(F)F (stereo not drawn) [1,1,1-Trifluoro-4-(2-methoxy-5-naphthalen-1-ylphenyl)-4-methyl-2-(5-morpholin-4-yl-1H-pyrrolo[2,3-c]pyridin-2-ylmethyl)pentan-2-ol] | potent agonists
CC(C)(CC(O)(Cn1ccc2c1CCCC2=O)C(F)(F)F)c1cc(-c2cccnc2)ccc1O (stereo not drawn) [1-[2-Hydroxy-4-(2-hydroxy-5-pyridin-3-ylphenyl)-4-methyl-2-trifluoromethylpentyl]-1,5,6,7-tetrahydroindol-4-one] | agonists
COc1ccc(F)cc1C(C)(C)CC(O)(Cc1cc2cc(N(C)C)ncc2[nH]1)C(F)(F)F (stereo not drawn) [2-(5-Dimethylamino-1H-pyrrolo[2,3-c]pyridin-2-ylmethyl)-1,1,1-trifluoro-4-(5-fluoro-2-methoxyphenyl)-4-methylpentan-2-ol] | potent agonists
Cc1ccc(F)cc1C(C)(C)CC(O)(Cc1cc2nc(CN3CCOCC3)ccc2[nH]1)C(F)(F)F (stereo not drawn) [1,1,1-Trifluoro-4-(5-fluoro-2-methylphenyl)-4-methyl-2-(5-morpholin-4-ylmethyl-1H-pyrrolo[3,2-b]pyridin-2-ylmethyl)pentan-2-ol] | potent agonists
CC(C)(CC(O)(Cc1cc2cnccc2[nH]1)C(F)F)c1cc(F)ccc1O (stereo not drawn) [2-[4,4-Difluoro-3-hydroxy-1,1-dimethyl-3-(1H-pyrrolo[3,2-c]pyridin-2-ylmethyl)butyl]-4-fluorophenol] | agonists
CC(C)(CC(O)(Cc1cc2ncncc2[nH]1)C(F)(F)F)c1cc(F)cc2c1OCC2 (stereo not drawn) [1,1,1-Trifluoro-4-(5-fluoro-2,3-dihydrobenzofuran-7-yl)-4-methyl-2-(5H-pyrrolo[3,2-d]pyrimidin-6-ylmethyl)pentan-2-ol] | potent agonists
CC(C)(CC(O)(Cc1cc2cc(-c3ccccc3)nnc2[nH]1)C(F)(F)F)c1cc(Cl)cc2c1OCC2 (stereo not drawn) [4-(5-Chloro-2,3-dihydrobenzofuran-7-yl)-1,1,1-trifluoro-4-methyl-2-(3-phenyl-7H-pyrrolo[2,3-c]pyridazin-6-ylmethyl)pentan-2-ol] | potent agonists
CC(C)(CC(O)(Cc1cc2cnccc2[nH]1)C(F)(F)F)c1cccc(-c2cccnc2)c1 (stereo not drawn) [1,1,1-Trifluoro-4-methyl-4-(3-pyridin-3-ylphenyl)-2-(1H-pyrrolo[3,2-c]pyridin-2-ylmethyl)pentan-2-ol] | potent agonists
CC(C)(CC(O)(Cc1cc2ncncc2[nH]1)C(F)(F)F)c1ccc(F)cc1O (stereo not drawn) [5-Fluoro-2-[4,4,4-trifluoro-3-hydroxy-1,1-dimethyl-3-(5H-pyrrolo[3,2-d]pyrimidin-6-ylmethyl)butyl]phenol] | potent agonists
Cc1ccc(F)cc1C(C)(C)CC(O)(Cc1cc2cc(-c3ccccc3)ncc2[nH]1)C(C)C (stereo not drawn) [5-(5-Fluoro-2-methylphenyl)-2,5-dimethyl-3-(5-phenyl-1H-pyrrolo[2,3-c]pyridin-2-ylmethyl)hexan-3-ol] | agonists
CC(C)(CC(O)(Cc1cc2nc(N3CCCC3)ncc2[nH]1)C(F)(F)F)c1cc(F)ccc1O (stereo not drawn) [4-Fluoro-2-[4,4,4-trifluoro-3-hydroxy-1,1-dimethyl-3-(2-pyrrolidin-1-yl-5H-pyrrolo[3,2-d]pyrimidin-6-ylmethyl)butyl]phenol] | potent agonists
Cc1ccc(F)cc1C(C)(C)CC(O)(Cc1cc2ccncc2[nH]1)C1CC1 (stereo not drawn) [2-Cyclopropyl-4-(5-fluoro-2-methylphenyl)-4-methyl-1-(1H-pyrrolo[2,3-c]pyridin-2-yl)pentan-2-ol] | agonists
COc1ccc(F)cc1C(C)(C)CC(O)(Cc1cc2nc(-c3ccccc3)ncc2[nH]1)C(F)(F)F (stereo not drawn) [1,1,1-Trifluoro-4-(5-fluoro-2-methoxyphenyl)-4-methyl-2-(2-phenyl-5H-pyrrolo[3,2-d]pyrimidin-6-ylmethyl)pentan-2-ol] | potent agonists
COc1ccc(-c2ccsc2)cc1C(C)(C)CC(O)(Cc1cc2c(C)nccc2[nH]1)C(F)(F)F (stereo not drawn) [1,1,1-Trifluoro-4-(2-methoxy-5-thiophen-3-ylphenyl)-4-methyl-2-(4-methyl-1H-pyrrolo[3,2-c]pyridin-2-ylmethyl)pentan-2-ol] | potent agonists
COc1nccc2[nH]c(CC(O)(CC(C)(C)c3cc(F)ccc3C)C(F)(F)F)cc12 (stereo not drawn) [1,1,1-Trifluoro-4-(5-fluoro-2-methylphenyl)-2-(4-methoxy-1H-pyrrolo[3,2-c]pyridin-2-ylmethyl)-4-methylpentan-2-ol] | potent agonists
CC(C)(CC(O)(Cc1cc2cc(-c3ccc(F)cc3)ncc2[nH]1)C(F)(F)F)c1cccc(F)c1 (stereo not drawn) [1,1,1-Trifluoro-4-(3-fluorophenyl)-2-[5-(4-fluorophenyl)-1H-pyrrolo[2,3-c]pyridin-2-ylmethyl]-4-methylpentan-2-ol] | potent agonists
COc1cc(F)ccc1C(C)(C)CC(O)(Cc1cc2c(C)nccc2[nH]1)C(F)(F)F (stereo not drawn) [1,1,1-Trifluoro-4-(4-fluoro-2-methoxyphenyl)-4-methyl-2-(4-methyl-1H-pyrrolo[3,2-c]pyridin-2-ylmethyl)pentan-2-ol] | potent agonists
CC(C)(CC(O)(Cc1cc2cnccc2[nH]1)C(F)(F)F)c1cc(S(C)(=O)=O)cc2c1OCC2 (stereo not drawn) [1,1,1-Trifluoro4-(5-methanesulfonyl-2,3-dihydrobenzofuran-7-yl)-4-methyl-2-(1H-pyrrolo[3,2-c]pyridin-2-ylmethyl)pentan-2-ol] | potent agonists
CC(C)(CC(O)(Cc1cc2cc(N3CCOCC3)ncc2[nH]1)C(F)(F)F)c1cc(-c2ccccc2C#N)ccc1O (stereo not drawn) [4′-Hydroxy-3′-[4,4,4-trifluoro-3-hydroxy-1,1-dimethyl-3-(5-morpholin-4-yl-1H-pyrrolo[2,3-c]pyridin-2-ylmethyl)butyl]biphenyl-2-carbonitrile] | potent agonists
Cc1ccc(F)cc1C(C)(C)CC(O)(Cc1cc2cnccc2[nH]1)C(C)(C)C (stereo not drawn) [5-(5-Fluoro-2-methylphenyl)-2,2,5-trimethyl-3-(1H-pyrrolo[3,2-c]pyridin-2-ylmethyl)hexan-3-ol] | agonists
CC(C)(CC(O)(Cc1cc2c(C#N)cccc2[nH]1)C(F)(F)F)c1cc(F)ccc1O (stereo not drawn) [2-[4-(5-Fluoro-2-hydroxyphenyl)-2-hydroxy-4-methyl-2-trifluoromethylpentyl]-1H-indole-4-carbonitrile] | potent agonists
CC(CO)(CC(O)(Cc1ccnc2ccccc12)C(F)(F)F)c1ccccc1 (stereo not drawn) [5,5,5-Trifluoro-2-methyl-2-phenyl-4-quinolin-4-ylmethylpentane-1,4-diol] | agonists
CC(C)(CC(O)(Cn1ccc2ncccc21)C(F)F)c1cc(Cl)cc2c1OCC2 (stereo not drawn) [4-(5-Chloro-2,3-dihydrobenzofuran-7-yl)-1,1-difluoro-4-methyl-2-pyrrolo[3,2-b]pyridin-1-ylmethylpentan-2-ol] | agonists
CC(C)(CC(O)(Cn1ccc2c1CCCC2=O)C(F)(F)F)c1cc(-c2cncnc2)ccc1O (stereo not drawn) [1-[2-Hydroxy-4-(2-hydroxy-5-pyrimidin-5-ylphenyl)-4-methyl-2-trifluoromethylpentyl]-1,5,6,7-tetrahydroindol-4-one] | agonists
COc1ccc(-c2cncnc2)cc1C(C)(C)CC(O)(Cc1cc2ccncc2[nH]1)C(F)(F)F (stereo not drawn) [1,1,1-Trifluoro-4-(2-methoxy-5-pyrimidin-5-ylphenyl)-4-methyl-2-(1H-pyrrolo[2,3-c]pyridin-2-ylmethyl)pentan-2-ol] | potent agonists
CC(C)(CC(O)(Cc1cc2cc(N3CCOCC3)ncc2[nH]1)C(F)(F)F)c1ccc(F)cc1 (stereo not drawn) [1,1,1-Trifluoro-4-(4-fluorophenyl)-4-methyl-2-(5-morpholin-4-yl-1H-pyrrolo[2,3-c]pyridin-2-ylmethyl)pentan-2-ol] | potent agonists
